One data set has as its system Cellic Ctec2. In words: Enzymatic hydrolysis of LHW pretreated hardwood (severity log Ro=12.51) at different hydrolysis conditions (FIG. 6). The data set is classed as biochemical, Trichoderma reesei. To be noted: 200 mM NaCl at pH 4.8; 5 FPU (8 mg) Ctec2/g glucan, 72 hrs. Here is the method: In this work, the lignocellulosic substrate was enzymatically hydrolyzed in order to study how the non-productive adsorption affected the enzymatic hydrolysis efficiency. The glucose yield of LHW pretreated hardwood containing 57.9% glucan and 40.3% lignin was measured for a low enzyme loading amount of 5 FPU (8 mg) Ctec2/g glucan at given conditions (FIG. 6). […] This might be due to the decreased cellulase activity at pH 5.5 as shown in microcrystalline cellulose (Avicel) hydrolysis. The overall decrease in T. reesei cellulase cocktail (Ctec2) adsorption onto lignins at elevated pHs was in agreement with the results by Lou et al. (2013). The reduced nonproductive adsorption led to the enhanced glucose yield more than twofold when the dilute acid or sulfite pretreated softwood was hydrolyzed with higher amount (10 FPU/g glucan) of cellulase (Lou et al., 2013).

In data set [1] the target is β-glucosidase from T. reesei. To be noted: cited from earlier work.
Data set [2] deals with T1, β-glucosidase from A. niger (Aspergillus niger, UniProt A2RAL4).
T1 sequence (A2RAL4 20-860): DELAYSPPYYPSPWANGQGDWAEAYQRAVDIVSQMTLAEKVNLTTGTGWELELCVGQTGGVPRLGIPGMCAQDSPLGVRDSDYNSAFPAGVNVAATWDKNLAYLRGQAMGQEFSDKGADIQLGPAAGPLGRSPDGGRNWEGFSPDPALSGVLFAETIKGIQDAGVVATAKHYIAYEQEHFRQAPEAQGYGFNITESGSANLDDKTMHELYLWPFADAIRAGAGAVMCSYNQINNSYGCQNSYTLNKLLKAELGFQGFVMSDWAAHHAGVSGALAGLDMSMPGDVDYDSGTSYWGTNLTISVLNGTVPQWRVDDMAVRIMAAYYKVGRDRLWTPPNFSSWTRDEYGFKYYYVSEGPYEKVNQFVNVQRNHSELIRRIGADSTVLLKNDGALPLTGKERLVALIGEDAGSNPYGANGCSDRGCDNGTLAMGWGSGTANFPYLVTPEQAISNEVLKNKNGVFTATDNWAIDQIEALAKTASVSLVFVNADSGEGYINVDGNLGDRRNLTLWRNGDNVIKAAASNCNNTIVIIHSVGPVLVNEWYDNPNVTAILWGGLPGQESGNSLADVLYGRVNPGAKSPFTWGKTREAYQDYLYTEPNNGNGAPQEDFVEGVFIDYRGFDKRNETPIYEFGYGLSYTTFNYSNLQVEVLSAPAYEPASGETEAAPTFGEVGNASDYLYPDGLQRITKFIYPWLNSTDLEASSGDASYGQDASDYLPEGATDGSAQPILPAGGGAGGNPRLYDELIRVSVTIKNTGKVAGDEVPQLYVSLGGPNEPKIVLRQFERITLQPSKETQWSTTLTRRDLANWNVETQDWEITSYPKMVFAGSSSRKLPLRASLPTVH
To be noted: cited from earlier work.

The conditions of data set [3]: adapted from literature; cited from earlier work.

We go through seven molecules from patent US20150275254A1, “ENZYME LOADING, CELLULOSE HYDROLYSIS, AND INHIBITION OF CELLOBIOHYDROLASES USING LIQUID HOT WATER PRETREATMENT” (PURDUE RESEARCH FOUNDATION, priority 2014, published 2015).

Turning to `[Cl-].[Na+]` [NaCl], the “effect on glucose yield” value in the data set on Cellic Ctec2 was “did not affect the glucose yield”. For `O=C(O)c1cc(O)c(O)c(O)c1` [gallic acid], the “k, deactivation rate constant” value in data set [1] was 0.046 h⁻¹; in data set [2], 0.006 h⁻¹. On to `O=C(OC[C@H]1O[C@@H](OC(=O)c2cc(O)c(O)c(OC(=O)c3cc(O)c(O)c(O)c3)c2)[C@H](OC(=O)c2cc(O)c(O)c(OC(=O)c3cc(O)c(O)c(O)c3)c2)[C@@H](OC(=O)c2cc(O)c(O)c(OC(=O)c3cc(O)c(O)c(O)c3)c2)[C@@H]1OC(=O)c1cc(O)c(O)c(OC(=O)c2cc(O)c(O)c(O)c2)c1)c1cc(O)c(O)c(OC(=O)c2cc(O)c(O)c(O)c2)c1` [tannic acid], for which the “k, deactivation rate constant” value was 0.068 h⁻¹ in data set [1] and 0.045 h⁻¹ in data set [2].

B1: CBHII: T. reesei enzyme, gene cel6a, GH6 (protein, UniProt P07987 25-471, looked up)
Exoglucanase 2: QACSSVWGQCGGQNWSGPTCCASGSTCVYSNDYYSQCLPGAASSSSSTRAASTTSRVSPTTSRSSSATPPPGSTTTRVPPVGSGTATYSGNPFVGVTPWANAYYASEVSSLAIPSLTGAMATAAAAVAKVPSFMWLDTLDKTPLMEQTLADIRTANKNGGNYAGQFVVYDLPDRDCAALASNGEYSIADGGVAKYKNYIDTIRQIVVEYSDIRTLLVIEPDSLANLVTNLGTPKCANAQSAYLECINYAVTQLNLPNVAMYLDAGHAGWLGWPANQDPAAQLFANVYKNASSPRALRGLATNVANYNGWNITSPPSYTQGNAVYNEKLYIHAIGPLLANHGWSNAFFITDQGRSGKQPTGQQQWGDWCNVIGTGFGIRPSANTGDSLLDSFVWVKPGGECDGTSDSSAPRFDSHCALPDALQPAPQAGAWFQAYFVQLLTNANPSFL
As to B1, the “Experimental pI” value in data set [3] is reported as “(5.2-5.9)”.

B2: EGI: T. reesei enzyme, gene cel7b, GH7 (protein, UniProt P07981 23-459, looked up)
Endoglucanase EG-1: QQPGTSTPEVHPKLTTYKCTKSGGCVAQDTSVVLDWNYRWMHDANYNSCTVNGGVNTTLCPDEATCGKNCFIEGVDYAASGVTTSGSSLTMNQYMPSSSGGYSSVSPRLYLLDSDGEYVMLKLNGQELSFDVDLSALPCGENGSLYLSQMDENGGANQYNTAGANYGSGYCDAQCPVQTWRNGTLNTSHQGFCCNEMDILEGNSRANALTPHSCTATACDSAGCGFNPYGSGYKSYYGPGDTVDTSKTFTIITQFNTDNGSPSGNLVSITRKYQQNGVDIPSAQPGGDTISSCPSASAYGGLATMGKALSSGMVLVFSIWNDNSQYMNWLDSGNAGPCSSTEGNPSNILANNPNTHVVFSNIRWGDIGSTTNSTAPPPPPASSTTFSTTRRSSTTSSSPSCTQTHWGQCGGIGYSGCKTCTSGTTCQYSNDYYSQCL
Regarding B2, the “Experimental pI” value in data set [3] is listed as “(3.9-4.5)”.

B3: EGII: T. reesei enzyme, gene cel5a, GH5 (protein, UniProt P07982 22-418, looked up)
Endoglucanase EG-II: QQTVWGQCGGIGWSGPTNCAPGSACSTLNPYYAQCIPGATTITTSTRPPSGPTTTTRATSTSSSTPPTSSGVRFAGVNIAGFDFGCTTDGTCVTSKVYPPLKNFTGSNNYPDGIGQMQHFVNEDGMTIFRLPVGWQYLVNNNLGGNLDSTSISKYDQLVQGCLSLGAYCIVDIHNYARWNGGIIGQGGPTNAQFTSLWSQLASKYASQSRVWFGIMNEPHDVNINTWAATVQEVVTAIRNAGATSQFISLPGNDWQSAGAFISDGSAAALSQVTNPDGSTTNLIFDVHKYLDSDNSGTHAECTTNNIDGAFSPLATWLRQNNRQAILTETGGGNVQSCIQDMCQQIQYLNQNSDVYLGYVGWGAGSFDSTYVLTETPTSSGNSWTDTSLVSSCLARK
For the molecule B3, in data set [3], the “Experimental pI” value is reported as “(4.2-5.5)”.

B4: CBHI: T. reesei enzyme, gene cel7a, GH7 (protein, UniProt P62694 18-513, looked up)
Exoglucanase 1: QSACTLQSETHPPLTWQKCSSGGTCTQQTGSVVIDANWRWTHATNSSTNCYDGNTWSSTLCPDNETCAKNCCLDGAAYASTYGVTTSGNSLSIGFVTQSAQKNVGARLYLMASDTTYQEFTLLGNEFSFDVDVSQLPCGLNGALYFVSMDADGGVSKYPTNTAGAKYGTGYCDSQCPRDLKFINGQANVEGWEPSSNNANTGIGGHGSCCSEMDIWEANSISEALTPHPCTTVGQEICEGDGCGGTYSDNRYGGTCDPDGCDWNPYRLGNTSFYGPGSSFTLDTTKKLTVVTQFETSGAINRYYVQNGVTFQQPNAELGSYSGNELNDDYCTAEEAEFGGSSFSDKGGLTQFKKATSGGMVLVMSLWDDYYANMLWLDSTYPTNETSSTPGAVRGSCSTSSGVPAQVESQSPNAKVTFSNIKFGPIGSTGNPSGGNPPGGNRGTTTTRRPATTTGSSPGPTQSHYGQCGGIGYSGPTVCASGTTCQVLNPYYSQCL
In the case of B4, in data set [3], the “Experimental pI” value is reported as “(3.6-3.9)”.
